The test system of data set [1] is free GATA-3. As to the kind of experiment: Gel retardation assay, free GATA-3 binding to GATA DNA probe. The arrangement: species or system human. As to conditions: 1 μM, gel shift. An excerpt: Acids Res 11, 1475-1489. […] (Santa Cruz Biotechnology) was also used as a competitor.
Data set [2] deals with MCF7 cells. Kind of data set: Northern blot of MCF7 cells in the presence and absence of β-estradiol. The format is cell-based, human. The note with it: 1×10^-8 M β-estradiol for three days. As for the experimental part:
All cell lines were obtained from American Type Culture Collection (ATCC, Rockville, Md.) and were maintained as described previously. MCF7 cells that were induced with estradiol were grown under normal conditions until approximately 25% confluence. The media was subsequently changed to phenol-red free Minimal Essential Media (Gibco BRL, Gaithersburg, Md.) supplemented with 10% charcoal-stripped fetal calf serum, 10 U/ml penicillin G, 10 μg/ml streptomycin, 6 ng/ml bovine insulin for six days. MCF7 cells were induced with 1×10^-8 M water soluble β-estradiol (Sigma Chemical Company, St. Louis, Mo.) for three days.
Poly(A+)mRNA was isolated from breast carcinoma cell lines and analyzed by Northern blot as described previously (Carmeci et al. (1997) Genomics 45, 607-617). The GATA-3 cDNA probe was prepared by reverse transcribing 1.6 μg of MCF7 poly(A)+RNA using the GeneAmp® RNA PCR Kit (Perkin Elmer, Foster City, Calif.) as per the manufacturer's recommendations. Resultant cDNA was used as template to PCR amplify (GeneAmp® PCR Kit, Perkin Elmer) the region of the GATA-3 cDNA from +530 to +1712 (numbered in accordance with the GATA-3 cDNA sequence, Genbank accession number X55122) using primers GATA3-2 (SEQ ID NO:3) [5-[…]-3'] and GATA3-4 (SEQ ID NO:4) [5'-[…]-3']. […]

Data set [3] concerns the target GATA-3 (TnT-GATA3) (Homo sapiens, UniProt P23771 P23771:1-443). As to the kind of experiment: competition; mutant cold competitor at 100-fold molar excess; text states only appropriate sequence specificity by gel shift competition. The note with it: tags: none stated. As for the experimental part:
Acids Res* 11, 1475–1489. […] (Santa Cruz Biotechnology) was also used as a competitor.
It was important to determine if functional GATA-3 protein is expressed in these cells. The GATA-3 cDNA was cloned from the MCF7 cells and GATA-3 protein was expressed using in vitro transcription/translation. […] MCF7 nuclear extracts were also tested for GATA binding activity.

Chain of GATA-3 (TnT-GATA3) (P23771 whole entry, one chain of several): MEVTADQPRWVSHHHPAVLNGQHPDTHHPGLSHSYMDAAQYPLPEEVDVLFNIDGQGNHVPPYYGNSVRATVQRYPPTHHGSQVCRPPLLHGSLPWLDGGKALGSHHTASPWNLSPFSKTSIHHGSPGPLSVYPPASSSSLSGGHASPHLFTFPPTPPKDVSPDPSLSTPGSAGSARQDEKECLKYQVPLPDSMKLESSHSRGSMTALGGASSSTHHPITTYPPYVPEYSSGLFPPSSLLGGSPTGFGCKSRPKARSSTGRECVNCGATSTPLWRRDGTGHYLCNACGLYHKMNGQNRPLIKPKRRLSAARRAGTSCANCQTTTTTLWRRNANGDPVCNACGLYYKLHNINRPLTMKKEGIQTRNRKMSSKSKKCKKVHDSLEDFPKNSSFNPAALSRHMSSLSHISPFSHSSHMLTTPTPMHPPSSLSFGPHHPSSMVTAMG

As for `CC/C(=C(\c1ccccc1)c1ccc(OCCN(C)C)cc1)c1ccccc1` [tamoxifen], the “interference with free GATA-3 binding DNA” value in data set [1] is reported as “does not interfere with free GATA-3 binding DNA”. On to `C[C@]12CC[C@@H]3c4ccc(O)cc4CC[C@H]3[C@@H]1CC[C@@H]2O` [estradiol, β-estradiol], for which, in data set [2], the “expression of GATA-3 mRNA” value is given as “did not change” and the “pS2 expression (mRNA)” value is “induced”.

B1: mutant GATA oligonucleotide (dsDNA)
DNA 1: CACTTCTTAACAGAAAGTCTTAACTCT
DNA 2: AGAGTTAAGACTTTCTGTTAAGAAGTG
modifications: [NONE]
B1: the binding result in data set [3] was “no binding”.

(Values after patent US6107034A, “GATA-3 expression in human breast carcinoma” (The Board of Trustees of the Leland Stanford Junior …, priority 1998, dated 2000).)
